Key:
[1] = test system: Sinapis alba, Stellaria media, Chrysanthemum segetum, and Lolium multiflorum; test: Post-emergence effect on weeds (greenhouse pot test, visual scoring); type: in vivo; conditions: applied post-emergence (three-leaf stage) at 0.3 kg to 0.005 kg of active ingredient per hectare; scored visually after about 3 to 4 weeks vs untreated controls
Experimental: Seeds or rhizome pieces of monocotyledonous and dicotyledonous weeds are placed in sandy loam soil in plastic pots, covered with soil and grown in a greenhouse under good growth conditions. Three weeks after sowing, the test plants are treated in the three-leaf stage. The compounds of the formula (I) or salts thereof according to the invention which have been formulated as wettable powders or as emulsion concentrates are sprayed in various dosages onto the green parts of the plants at an application rate of 600 to 800 l of water/ha (converted). After the test plants have remained in the greenhouse for about 3 to 4 weeks under ideal growth conditions, the effect of the preparations is scored visually by comparison with untreated controls. The agents according to the invention also have a good herbicidal post-emergence activity against a broad range of economically important grass weeds and broad-leaved weeds.

[2] = test system: Sinapis alba, Stellaria media, Chrysanthemum segetum, and Lolium multiflorum; test: Pre-emergence effect on weeds (greenhouse pot test, visual scoring); type: in vivo; conditions: applied pre-emergence at 0.3 kg to 0.005 kg of active ingredient per hectare; scored visually after 3 to 4 weeks vs untreated controls
Excerpt: Seeds or rhizome pieces of monocotyledonous and dicotyledonous weed plants are placed in sandy loam soil in plastic pots and covered with soil. The compounds of the formula (I) or salts thereof according to the invention which have been formulated in the form of wettable powders or emulsion concentrates are then applied to the surface of the soil cover in the form of aqueous suspensions or emulsions at an application rate of […] of water/ha (converted), in various dosages.
After the treatment, the pots are placed in a greenhouse and kept under good growth conditions for the weeds. After the test plants have emerged after a period of 3 to 4 weeks, the damage to the plants or the negative effect on the emergence is scored visually by comparison with untreated controls. As shown by the test results, the compounds according to the invention have a good herbicidal pre-emergence activity against a broad spectrum of grass weeds and broad-leaved weeds.

Compound | herbicidal activity, post-emergence [1] | herbicidal activity, pre-emergence [2] | melting point
COc1cc(OC)nc(NC(=O)NS(=O)(=O)c2ccccc2N=CN(C)C)n1 [Example 1-1, N-[(4,6-dimethoxypyrimidin-2-yl)aminocarbonyl]-2-(2-dimethylamino-1-azaethenyl)benzenesulfonamide] | very good herbicidal activity | very good herbicidal activity | 209 to 210 °C (dec.)
CCN(C=Nc1ccccc1S(=O)(=O)NC(=O)Nc1nc(OC)cc(OC)n1)CC [Example 1-5] | very good herbicidal activity | very good herbicidal activity | 
COc1cc(OC)nc(NC(=O)[N-]S(=O)(=O)c2ccccc2N=CN(C)C)n1.[Na+] [Example 1-14] | very good herbicidal activity | very good herbicidal activity | 
COC(=O)c1ccc(N=CN(C)C)cc1S(=O)(=O)NC(=O)Nc1nc(OC)cc(OC)n1 [Example 2-10, methyl 2-[[[[(4,6-dimethoxypyrimidin-2-yl)amino]carbonyl]amino]sulfonyl]-4-(2-dimethylamino-1-azaethenyl)-benzoate] | very good herbicidal activity | very good herbicidal activity | 73 to 75 °C
COc1cc(OC)nc(NC(=O)NS(=O)(=O)c2cc(N=CN(C)C)ccc2C(=O)N(C)C)n1 [Example 2-15, N,N-dimethyl-2-[[[[(4,6-dimethoxypyrimidin-2-yl)-amino]carbonyl]amino]sulfonyl]-4-(2-dimethylamino-1-azaethenyl)-benzamide] | very good herbicidal activity | very good herbicidal activity | 140 to 141 °C (dec.)
COc1cc(OC)nc(NC(=O)NS(=O)(=O)c2cc(N=CN(C)C)ccc2S(C)(=O)=O)n1 [Example 2-21] | very good herbicidal activity | very good herbicidal activity | 
CCS(=O)(=O)c1ccc(N=CN(C)C)cc1S(=O)(=O)NC(=O)Nc1nc(OC)cc(OC)n1 [Example 2-22] | very good herbicidal activity | very good herbicidal activity | 
CCC(=Nc1ccc(C(=O)OC)c(S(=O)(=O)NC(=O)Nc2nc(OC)cc(OC)n2)c1)N(C)C [Example 2-24] | very good herbicidal activity | very good herbicidal activity | 
COC(=O)c1ccc(N=C(C(C)C)N(C)C)cc1S(=O)(=O)NC(=O)Nc1nc(OC)cc(OC)n1 [Example 2-26] | very good herbicidal activity | very good herbicidal activity | 
COC(=O)c1ccc(N=CN2CCCC2)cc1S(=O)(=O)NC(=O)Nc1nc(OC)cc(OC)n1 [Example 2-36] | very good herbicidal activity | very good herbicidal activity | 
COC(=O)c1ccc(N=CN2CCCCC2)cc1S(=O)(=O)NC(=O)Nc1nc(OC)cc(OC)n1 [Example 2-37] | very good herbicidal activity | very good herbicidal activity | 
COC(=O)c1ccc(N=CN(C)C)cc1S(=O)(=O)NC(=O)Nc1nc(Cl)cc(OC)n1 [Example 2-39] | very good herbicidal activity | very good herbicidal activity | 
COC(=O)c1ccc(N=CN(C)C)cc1S(=O)(=O)NC(=O)Nc1nc(C)nc(OC)n1 [Example 2-41] | very good herbicidal activity | very good herbicidal activity | 
COc1cc(OC)nc(NC(=O)NS(=O)(=O)c2cccc(N=CN(C)C)c2)n1 [Example 2-47] | very good herbicidal activity | very good herbicidal activity | 
CCN(C=Nc1ccc(C(=O)OC)c(S(=O)(=O)NC(=O)Nc2nc(OC)cc(OC)n2)c1)CC [Example 2-48] | very good herbicidal activity | very good herbicidal activity | 
CCN(C=Nc1ccc(C(=O)OC)c(S(=O)(=O)[N-]C(=O)Nc2nc(OC)cc(OC)n2)c1)CC.[Na+] [Example 2-49] | very good herbicidal activity | very good herbicidal activity | 
CCN(C=Nc1ccc(S(=O)(=O)CC)c(S(=O)(=O)NC(=O)Nc2nc(OC)cc(OC)n2)c1)CC [Example 2-50] | very good herbicidal activity | very good herbicidal activity | 
COc1cc(OC)nc(NC(=O)NS(=O)(=O)c2ncccc2N=CN(C)C)n1 [Example 4-2] | very good herbicidal activity |  | 
COc1cc(OC)nc(NC(=O)NS(=O)(=O)c2ncccc2N=C(C(C)C)N(C)C)n1 [Example 4-17] | very good herbicidal activity | very good herbicidal activity | 
COc1cc(OC)nc(NC(=O)NS(=O)(=O)c2ncccc2N=C(C)N(C)C)n1 [Example 4-18] | very good herbicidal activity | very good herbicidal activity | 
CCC(=Nc1cccnc1S(=O)(=O)NC(=O)Nc1nc(OC)cc(OC)n1)N(C)C [Example 4-19] | very good herbicidal activity | very good herbicidal activity | 
COc1cc(OC)nc(NC(=O)NS(=O)(=O)c2sccc2N=C(C)N(C)C)n1 [Example 9-1] | very good herbicidal activity | very good herbicidal activity | 
COc1cc(OC)nc(NC(=O)[N-]S(=O)(=O)c2sccc2N=C(C)N(C)C)n1.[Na+] [Example 9-2] | very good herbicidal activity | very good herbicidal activity | 
COc1cc(OC)nc(NC(=O)NS(=O)(=O)c2sccc2N=C(C(C)C)N(C)C)n1 [Example 9-3] | very good herbicidal activity | very good herbicidal activity | 
COc1cc(OC)nc(NC(=O)[N-]S(=O)(=O)c2sccc2N=C(C(C)C)N(C)C)n1.[Na+] [Example 9-4] | very good herbicidal activity | very good herbicidal activity | 
COc1cc(OC)nc(NC(=O)NS(=O)(=O)c2sccc2N=CN(C)C)n1 [Example 9-5] | very good herbicidal activity | very good herbicidal activity | 
COc1cc(OC)nc(NC(=O)[N-]S(=O)(=O)c2sccc2N=CN(C)C)n1.[Na+] [Example 9-6] | very good herbicidal activity | very good herbicidal activity | 
COc1cc(OC)nc(NC(=O)NS(=O)(=O)c2c(N=CN(C)C)c(C)nn2C)n1 [Example 10-1] | very good herbicidal activity | very good herbicidal activity | 
COc1cc(OC)nc(NC(=O)[N-]S(=O)(=O)c2c(N=CN(C)C)c(C)nn2C)n1.[Na+] [Example 10-2] | very good herbicidal activity | very good herbicidal activity | 

— patent US6410482B1, “(Het) arylsulfonylureas having an amino function, their presentation and their use as herbicides and plant growth regulators” (Hoechst Schering AgrEvo GmbH, priority 1996, dated 2002)
